From patent US10538521B2, “Pyrimidine derivative having antimalarial activity” (CARNA BIOSCIENCES, INC., priority 2016, dated 2020)

Tests used:
[1] = test system: FCR3 strain, a drug sensitive strain of Plasmodium falciparum; assay: In vitro antimalarial assay (p-LDH, Malstat), FCR3 strain; assay type: cell-based; conditions: P. falciparum FCR3 (drug sensitive), 72 h culture, p-LDH readout, read-out: Antimalarial activity (IC50 value), Strain FCR3
Method in brief: (§1)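 IC50 derived from concentration-response of parasite lactate dehydrogenase signal (Malstat reagent, NBT/PES formazan at 655 nm) after freeze-thaw lysis. Infected erythrocytes (hematocrit 2%, parasitaemia 0.5 or 1%) exposed 72 h to 12.5–0.0001 μM final compound under 3% O2-4% CO2-93% N2, FCR3 and K1 alike.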

[2] = test system: K1 strain, a drug resistant strain of Plasmodium falciparum; assay: In vitro antimalarial assay (p-LDH, Malstat), K1 strain; assay type: cell-based; conditions: P. falciparum K1 (drug resistant), 72 h culture, p-LDH readout, read-out: Antimalarial activity (IC50 value), Strain K1
Method in brief: as §1

Row | SMILES | IC50 [1] [nM] | IC50 [2] [nM]
1 | CCc1ccnc(Nc2nc(Nc3ccn4ccnc4c3)cc(N3CC[C@H](O)C3)n2)c1 [Example 117, (S)-1-(2-((4-ethylpyridin-2-yl)amino)-6-(imidazo[1,2-a]pyridin-7-ylamino)pyrimidin-4-yl)pyrrolidin-3-ol] | < 100 | < 100
2 | COc1cccc(Nc2nc(Nc3ccn4ccnc4c3)cc(N3CCCC3)n2)n1 [Example 143, N4-(imidazo[1,2-a]pyridin-7-yl)-N2-(6-methoxypyridin-2-yl)-6-(pyrrolidin-1-yl)pyrimidine-2,4-diamine] | 1000 to 10000 | 100 to 1000
3 | CCCOCc1cccc(Nc2nc(Nc3ccn4ccnc4c3)cc(N3CCCC3)n2)n1 [Example 164, N4-(imidazo[1,2-a]pyridin-7-yl)-N2-[6-(propoxymethyl)pyridin-2-yl]-6-(pyrrolidin-1-yl) pyrimidine-2,4-diamine] | 100 to 1000 | 1000 to 10000
4 | Cc1cccc(Nc2nc(Nc3ccn4ccnc4c3)cc(N3CCOCC3)n2)n1 [Example 10, N4-(Imidazo[1,2-a]pyridin-7-yl)-N2-(6-methylpyridin-2-yl)-6-morpholinopyrimidine-2,4-diamine] | < 100 | < 100
5 | CCOc1cc(Nc2ccn3ccnc3c2)nc(Nc2cccc(C)n2)n1 [Example 29, 6-ethoxy-N4-(imidazo[1,2-a]pyridin-7-yl)-N2-(6-methylpyridin-2-yl)pyrimidine-2,4-diamine] | 100 to 1000 | 100 to 1000
6 | CCOc1ccc(Nc2nc(Nc3ccn4ccnc4c3)cc(N3CCOCC3)n2)cn1 [Example 7, N2-(6-Ethoxypyridin-3-yl)-N4-(imidazo[1,2-a]pyridin-7-yl)-6-morpholinopyrimidine-2,4-diamine] | < 100 | < 100
7 | CC(C)c1ccnc(Nc2nc(Nc3ccn4ccnc4c3)cc(N3CCCCC3)n2)c1 [Example 73, N4-(imidazo[1,2-a]pyridin-7-yl)-N2-(4-isopropylpyridin-2-yl)-6-(piperidin-1-yl)pyrimidine-2,4-diamine] | 100 to 1000 | 100 to 1000
8 | Fc1cccnc1Nc1nc(Nc2ccn3ccnc3c2)cc(N2CCOCC2)n1 [Example 20, N2-(3-Fluoropyridin-2-yl)-N4-(imidazo[1,2-a]pyridin-7-yl)-6-morpholinopyrimidine-2,4-diamine] | 100 to 1000 | 100 to 1000
9 | CC(C)(C)c1ccnc(Nc2nc(Nc3ccn4ccnc4c3)cc(N3CCCCC3)n2)c1 [Example 72, N2-(4-(tert-butyl)pyridin-2-yl)-N4-(imidazo[1,2-a]pyridin-7-yl)-6-(piperidin-1-yl)pyrimidine-2,4-diamine] | 100 to 1000 | 1000 to 10000
10 | CCc1ccnc(Nc2nc(Nc3ccn4ccnc4c3)cc(N3CCC(CO)CC3)n2)c1 [Example 119, (1-(2-((4-ethylpyridin-2-yl)amino)-6-(imidazo[1,2-a]pyridin-7-ylamino)pyrimidin-4-yl)piperidin-4-yl)methanol] | < 100 | < 100
11 | Cc1cc(C)nc(Nc2nc(Nc3ccn4ccnc4c3)cc(NN3CCCC3)n2)c1 [Example 206, N2-(4,6-dimethylpyridin-2-yl)-N4-(imidazo[1,2-a]pyridin-7-yl)-N6-(pyrrolidin-1-yl)pyrimidine-2,4,6-triamine] | < 100 | < 100
12 | Cc1cc(C)nc(Nc2nc(Nc3ccn4ccnc4c3)cc(N3CCC(N(C)C)C3)n2)c1 (centres unmarked) [Example 137, 6-(3-(dimethylamino)pyrrolidin-1-yl)-N2-(4,6-dimethylpyridin-2-yl)-N4-(imidazo[1,2-a]pyridin-7-yl)pyrimidine-2,4-diamine] | < 100 | < 100
13 | CCCCc1cc(CC)cc(Nc2nc(Nc3ccn4ccnc4c3)cc(N3CCCCC3)n2)n1 [Example 201, N2-(6-butyl-4-ethylpyridin-2-yl)-N4-(imidazo[1,2-a]pyridin-7-yl)-6-(piperidin-1-yl) pyrimidine-2,4-diamine] | 100 to 1000 | 100 to 1000
14 | Cc1cc(C)nc(Nc2nc(Nc3ccn4ccnc4c3)cc(N3CCCC3)n2)c1 [Example 135, N2-(4,6-dimethylpyridin-2-yl)-N4-(imidazo[1,2-a]pyridin-7-yl)-6-(pyrrolidin-1-yl)pyrimidine-2,4-diamine] | < 100 | < 100
15 | Cc1cc(C)nc(Nc2nc(Nc3ccn4ccnc4c3)cc(N3CCC(N4CCOCC4)C3)n2)c1 (centres unmarked) [Example 149, N2-(4,6-dimethylpyridin-2-yl)-N4-(imidazo[1,2-a]pyridin-7-yl)-6-(3-morpholinopyrrolidin-1-yl)pyrimidine-2,4-diamine] | < 100 | < 100
16 | Cc1cc(C)nc(Nc2nc(Nc3ccn4ccnc4c3)cc(N3CC4(COC4)C3)n2)c1 [Example 178, N2-(4,6-dimethylpyridin-2-yl)-N4-(imidazo[1,2-a]pyridin-7-yl)-6-(2-oxa-6-azaspiro[3.3]heptan-6-yl)pyrimidine-2,4-diamine] | < 100 | < 100

Row | SMILES | IC50 [1] [nM] | IC50 [2] [nM]
17 | CCc1ccnc(Nc2nc(Nc3ccn4ccnc4c3)cc(N3CCN[C@@H](C)C3)n2)c1 [Example 97, (S)-N2-(4-ethylpyridin-2-yl)-N4-(imidazo[1,2-a]pyridin-7-yl)-6-(3-methylpiperazin-1-yl)pyrimidine-2,4-diamine] | 100 to 1000 | 100 to 1000
18 | COc1cc(CF)nc(Nc2nc(Nc3ccn4ccnc4c3)cc(N3CCCCC3)n2)c1 [Example 191, N2-(6-(fluoromethyl)-4-methoxypyridin-2-yl)-N4-(imidazo [1,2-a]pyridin-7-yl)-6-(piperidin-1-yl)pyrimidine-2,4-diamine] | 100 to 1000 | 100 to 1000
19 | Cc1nc(Nc2nc(Nc3ccn4ccnc4c3)cc(N3CCOCC3)n2)cc(C2CC2)c1F [Example 53, N2-(4-Cyclopropyl-5-fluoro-6-methylpyridin-2-yl)-N4-(imidazo [1,2-a]pyridin-7-yl)-6-morpholinopyrimidine-2,4-diamine] | 100 to 1000 | 100 to 1000
20 | Cc1nc(Nc2nc(Nc3ccn4ccnc4c3)cc(N3CCCCC3)n2)ccc1F [Example 202, N2-(5-fluoro-6-methylpyridin-2-yl)-N4-(imidazo[1,2-a]pyridin-7-yl)-6-(piperidin-1-yl) pyrimidine-2,4-diamine] | 100 to 1000 | 100 to 1000
21 | Cc1cc(C)nc(Nc2nc(Nc3ccn4ccnc4c3)cc(N3CCC(F)(F)C3)n2)c1 [Example 138, 6-(3,3-difluoropyrrolidin-1-yl)-N2-(4,6-dimethylpyridin-2-yl)-N4-(imidazo[1,2-a]pyridin-7-yl)pyrimidine-2,4-diamine] | < 100 | 100 to 1000
22 | c1ncc(Nc2nc(Nc3ccn4ccnc4c3)cc(N3CCOCC3)n2)cn1 [Example 8, N4-(Imidazo[1,2-a]pyridin-7-yl)-6-morpholino-N2-(pyrimidin-5-yl)pyrimidine-2,4-diamine] | 100 to 1000 | 1000 to 10000
23 | CC(C)Oc1ccc(Nc2nc(Nc3ccn4ccnc4c3)cc(N3CCOCC3)n2)cn1 [Example 15, N4-(Imidazo[1,2-a]pyridin-7-yl)-N2-(6-isopropoxypyridin-3-yl)-6-morpholinopyrimidine-2,4-diamine] | < 100 | < 100
24 | CCc1ccnc(Nc2nc(Nc3ccn4ccnc4c3)cc(N3CCN(C(=O)OC(C)(C)C)[C@@H](C)C3)n2)c1 [Example 103, (S)-tert-butyl 4-(2-((4-ethylpyridin-2-yl)amino)-6-(imidazo[1,2-a]pyridin-7-ylamino)pyrimidin-4-yl)-2-methylpiperazine-1-carboxylate] | 100 to 1000 | 100 to 1000
25 | Cc1cc(C)nc(Nc2nc(Nc3ccn4ccnc4c3)cc(N3CCC(O)C3)n2)c1 (centres unmarked) [Example 136, 1-(2-((4,6-dimethylpyridin-2-yl)amino)-6-(imidazo[1,2-a]pyridin-7-ylamino)pyrimidin-4-yl)pyrrolidin-3-ol] | < 100 | < 100
26 | CCc1ccnc(Nc2nc(Nc3ccn4ccnc4c3)cc(N3CCC4(CCCC4)C3)n2)c1 [Example 208, N2-(4-ethylpyridin-2-yl)-N4-(imidazo[1,2-a]pyridin-7-yl)-6-(2-azaspiro[4.4]nonan-2-yl) pyrimidine-2,4-diamine] | 100 to 1000 | 100 to 1000
27 | CCOCCc1cccc(Nc2nc(Nc3ccn4ccnc4c3)cc(N3CCCC3)n2)n1 [Example 160, N2-[6-(2-ethoxyethyl)pyridin-2-yl]-N4-(imidazo[1,2-a]pyridin-7-yl)-6-(pyrrolidin-1-yl) pyrimidine-2,4-diamine] | < 100 | < 100
28 | Cc1ccc(Nc2nc(Nc3ccn4ccnc4c3)cc(-n3ccnc3)n2)nc1 [Example 43, N4-(imidazo[1,2-a]pyridin-7-yl)-6-(1H-imidazol-1-yl)-N2-(5-methylpyridin-2-yl)pyrimidine-2,4-diamine] | < 100 | 100 to 1000
29 | CCc1ccnc(Nc2nc(Nc3ccn4ccnc4c3)cc(N3CCCCC3)n2)c1 [Example 71, N2-(4-ethylpyridin-2-yl)-N4-(imidazo[1,2-a]pyridin-7-yl)-6-(piperidin-1-yl)pyrimidine-2,4-diamine] | < 100 | < 100
30 | CCc1cccc(Nc2nc(Nc3ccn4ccnc4c3)cc(N3CCCCC3)n2)n1 [Example 95, N2-(6-ethylpyridin-2-yl)-N4-(imidazo[1,2-a]pyridin-7-yl)-6-(piperidin-1-yl)pyrimidine-2,4-diamine] | < 100 | < 100
31 | Cc1ccnc(Nc2nc(Nc3ccn4ccnc4c3)cc(N3CCOCC3)n2)c1 [Example 17, N4-(Imidazo[1,2-a]pyridin-7-yl)-N2-(4-methylpyridin-2-yl)-6-morpholinopyrimidine-2,4-diamine] | < 100 | < 100
